The source of these data is ChEMBL document CHEMBL4842365, “Exploring the dNTP -binding site of HIV-1 reverse transcriptase for inhibitor design” (Eur J Med Chem, 2021).

Activity calls are given as the source filed them. The calls are words filed in the database; no cut-off is given here.

Common to all, as to conditions: time 25-30 min
Assay [1] deals with Human immunodeficiency virus type 1 reverse transcriptase (Human immunodeficiency virus 1) (UniProt Q72547). Kind of assay: Inhibition of HIV-1 reverse transcriptase using 5'-Cy5CAGGAAACAGCTATGAC/3'-GTCCTTTGTCGATACTGTTTTTTT-5' as primer/template at 1 mM preincubated for 20 min followed by dATP addition measured after 5 to 10 mins by gel electrophoresis analysis.
Assay [2] has the same target. Kind of assay: Inhibition of HIV-1 reverse transcriptase using 5'-Cy5CAGGAAACAGCTATGAC/3'-GTCCTTTGTCGATACTGTTTTTTT-5' as primer/template at 5 mM preincubated for 20 min followed by dATP addition measured after 5 to 10 mins by gel electrophoresis analysis.
The target is the same in assay [3]. The assay is described as follows: Inhibition of HIV-1 reverse transcriptase using 5'-Cy5CAGGAAACAGCTATGAC/3'-GTCCTTTGTCGATACTGTTTTTTT-5' as primer/template at 10 mM preincubated for 20 min followed by dATP addition measured after 5 to 10 mins by gel electrophoresis analysis.

On to `C[C@H](Cn1cnc2c(N)ncnc21)N(CCP(=O)(O)O)CC(=O)O`, for which, in assay [1], the inhibition entry was “inactive”. For the same molecule, the inhibition entry in assay [2] and in assay [3] was “Active” in each case.
Turning to `Nc1ncnc2c1ncn2CCN[C@@H](CO)C(=O)NP(=O)(O)O`, the inhibition result in assay [1] is “inactive”. Further, the inhibition entry in assay [2] and in assay [3] was “Active” each time.
With `Nc1ncnc2c1ncn2CCCOC(CP(=O)(O)O)C(=O)O` (centres undefined), the inhibition entry in assay [1] was “inactive”. Also, the inhibition result in assay [2] and in assay [3] was “Active” in each case.
As for `Nc1ncnc2c1ncn2CCCN[C@H](CP(=O)(O)O)C(=O)O`, the inhibition result in assay [1] is “inactive”. In addition, the inhibition entry in assay [2] and in assay [3] was “Active” in each case.
Consider `Nc1ncnc2c1ncn2CCOC(CP(=O)(O)O)C(=O)O` (racemic), for which the inhibition entry in assay [1] was “inactive”. Moreover, the inhibition result in assay [2] and in assay [3] was “Active” throughout.
Take `Nc1ncnc2c1ncn2CCN[C@@H](CP(=O)(O)O)C(=O)O`: the inhibition entry in assay [1] and in assay [3] was “inactive” throughout.
Regarding `Nc1ncnc2c1ncn2CCN[C@H](CP(=O)(O)O)C(=O)O`, the inhibition entry in assay [1] and in assay [3] was “inactive” throughout.
